# Tests used:
# Colinus virginianus = conditions: acute; oral; mortality
# Apis mellifera = conditions: acute; duration: 48 hours; dermal; mortality
# Bibionidae = conditions: chronic/long-term; duration: 25 days; development
# Tagia sp. = conditions: acute; duration: 14 days; mortality
# Daphnia magna = conditions: chronic/long-term; duration: 21 days; reproduction
smiles,measurement,setting,value
CCCN(CCC)C(=O)SCc1ccccc1 [Prosulfocarb],LC50,"Oncorhynchus mykiss; acute, duration: 96 hours, mortality",0.84 µg/mL
same,NOEC,"Oncorhynchus mykiss; chronic/long-term, duration: 21 days, other",0.31 mg/L
same,LD50,Colinus virginianus,> 2250 mg/kg-day
same,LD50,Apis mellifera,> 80 µg/piece
same,NOEC,Bibionidae,1.25 mg/L
same,LC50,Tagia sp.,144 mg/kg
same,NOEC,Daphnia magna,0.045 mg/L
same,LD50,"Rattus norvegicus; acute, oral, mortality",1820 mg/kg-day
same,NOAEL,"Rattus norvegicus; chronic, duration: 2 years, oral, body weight",0.5 mg/kg-day
same,NOAEL,"Rattus norvegicus; reproduction developmental, body weight",0.5 mg/kg-day
same,NOAEL,"Rattus norvegicus; reproduction developmental, clinical signs",10 mg/kg-day
same,NOAEL,"Rattus norvegicus; reproduction developmental, reproduction",> 50 mg/kg-day
same,NOAEL,"Rattus norvegicus; subchronic, duration: 90 days, oral, body weight",1 mg/kg-day
same,NOEL,Anas platyrhynchos; reproductive,131 mg/kg-day
same,LD50,"Anas platyrhynchos; short-term, oral, feed, mortality",> 1510 mg/kg-day

# From EPA's ToxValDB 9.5 (doi:10.2903/j.efsa.2007.111r)
